In US20140163026A1, “8-ETHYL-6-(ARYL)PYRIDO[2,3-D]PYRIMIDIN-7(8H)-ONES FOR THE TREATMENT OF NERVOUS SYSTEM DISORDERS AND CANCER” (Afraxis Holdings, Inc., priority 2011, published 2014):

What was measured:
Type in all cases: biochemical
PAK4 = PAK4 (Homo sapiens, UniProt O96013); assay: In vitro PAK inhibition assay (SelectScreen, Ser/Thr 20 peptide)
Summary of the method: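 Ten-point, 3-fold compound series (1% DMSO) incubated 1 h at room temperature with PAK4 (0.1-0.75 ng) and 2 μM Ser/Thr 20 peptide, HEPES pH 7.5 buffer with MgCl2, EGTA, BRIJ-35. Development reagent cleaves non-phosphorylated peptide; fluorescence emission ratio gives % phosphorylation, fitted sigmoidally for IC50.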

PAK2 (PAK65) = PAK2 (PAK65) (Homo sapiens, UniProt Q13177); assay: as above
Sequence of PAK2 (PAK65) (Q13177 whole entry): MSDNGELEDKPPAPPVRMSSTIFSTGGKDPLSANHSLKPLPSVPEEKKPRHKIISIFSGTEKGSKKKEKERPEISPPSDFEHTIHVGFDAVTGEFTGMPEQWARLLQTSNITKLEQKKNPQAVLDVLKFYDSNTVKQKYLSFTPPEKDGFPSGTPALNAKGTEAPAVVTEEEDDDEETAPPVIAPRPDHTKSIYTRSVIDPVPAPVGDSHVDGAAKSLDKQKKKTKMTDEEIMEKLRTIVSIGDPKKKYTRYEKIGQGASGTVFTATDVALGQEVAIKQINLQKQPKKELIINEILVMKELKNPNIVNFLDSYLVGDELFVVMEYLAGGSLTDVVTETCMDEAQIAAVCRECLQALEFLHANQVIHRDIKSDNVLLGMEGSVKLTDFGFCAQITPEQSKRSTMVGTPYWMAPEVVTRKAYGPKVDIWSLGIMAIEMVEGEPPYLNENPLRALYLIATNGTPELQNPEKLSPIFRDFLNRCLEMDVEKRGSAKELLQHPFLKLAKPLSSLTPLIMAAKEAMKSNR
Summary of the method: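 Ten-point threefold compound dilutions (1% DMSO) were incubated with PAK2 (0.29-6 ng) and Ser/Thr 20 substrate (2 μM) for 60 min at room temperature in HEPES pH 7.5 buffer with MgCl2, EGTA and BRIJ-35.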

PAK1 = PAK1 (Homo sapiens, UniProt Q13153); assay: In vitro PAK inhibition assay (SelectScreen, Ser/Thr 19 peptide)
Sequence of PAK1 (Q13153 whole entry): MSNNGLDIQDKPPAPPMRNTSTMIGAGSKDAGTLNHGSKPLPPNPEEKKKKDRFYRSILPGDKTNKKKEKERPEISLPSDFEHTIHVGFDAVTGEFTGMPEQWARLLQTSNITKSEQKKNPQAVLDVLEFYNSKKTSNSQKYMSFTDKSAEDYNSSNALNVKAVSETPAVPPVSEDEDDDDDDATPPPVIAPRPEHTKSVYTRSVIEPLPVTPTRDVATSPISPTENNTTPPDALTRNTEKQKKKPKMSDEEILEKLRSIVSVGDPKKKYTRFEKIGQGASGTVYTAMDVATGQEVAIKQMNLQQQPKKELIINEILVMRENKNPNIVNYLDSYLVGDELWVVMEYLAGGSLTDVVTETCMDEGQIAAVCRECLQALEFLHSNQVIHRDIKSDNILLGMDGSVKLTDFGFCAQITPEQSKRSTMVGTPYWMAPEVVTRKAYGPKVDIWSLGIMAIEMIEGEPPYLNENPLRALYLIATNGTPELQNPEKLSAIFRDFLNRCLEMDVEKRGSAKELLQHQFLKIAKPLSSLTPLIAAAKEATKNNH
Summary of the method: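 Ten-point, 3-fold compound series at 1% final DMSO were incubated with enzyme, Ser/Thr 19 peptide and ATP for 60 min at room temperature. Buffer was HEPES pH 7.5 (50 mM) with 10 mM MgCl2, 1 mM EGTA, 0.01% BRIJ-35. A 60 min development step preceded the fluorescence read converted to % phosphorylation.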

PAK3 = PAK3 (Homo sapiens, UniProt O75914); assay: In vitro PAK inhibition assay (SelectScreen, Ser/Thr 20 peptide)
Sequence of PAK3 (O75914 whole entry): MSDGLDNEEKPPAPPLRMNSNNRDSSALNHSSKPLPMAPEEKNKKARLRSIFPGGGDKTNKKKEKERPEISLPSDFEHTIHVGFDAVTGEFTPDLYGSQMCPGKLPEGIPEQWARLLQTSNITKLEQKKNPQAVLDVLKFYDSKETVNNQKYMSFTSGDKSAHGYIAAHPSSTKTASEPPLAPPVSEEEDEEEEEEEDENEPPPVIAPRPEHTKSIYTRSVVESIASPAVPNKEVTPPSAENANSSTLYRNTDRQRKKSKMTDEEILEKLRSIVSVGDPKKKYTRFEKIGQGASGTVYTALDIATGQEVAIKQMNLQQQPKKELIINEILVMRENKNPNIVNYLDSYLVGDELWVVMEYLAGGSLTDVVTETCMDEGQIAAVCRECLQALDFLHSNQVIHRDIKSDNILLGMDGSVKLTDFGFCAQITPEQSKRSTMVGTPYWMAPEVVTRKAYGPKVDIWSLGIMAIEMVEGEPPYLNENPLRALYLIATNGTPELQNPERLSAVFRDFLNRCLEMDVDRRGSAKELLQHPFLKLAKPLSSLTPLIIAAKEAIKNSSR
Summary of the method: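 Fluorescence-based development format: after a 60-min room-temperature kinase reaction and 60-min protease development, percent phosphorylation of Ser/Thr 20 peptide calculated via phosphopeptide controls. Buffer 50 mM HEPES pH 7.5, 10 mM MgCl2, 1 mM EGTA, 0.01% BRIJ-35; compounds at 1% DMSO, 10-point 3-fold dilution series.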

Sequence of PAK4 (O96013 whole entry): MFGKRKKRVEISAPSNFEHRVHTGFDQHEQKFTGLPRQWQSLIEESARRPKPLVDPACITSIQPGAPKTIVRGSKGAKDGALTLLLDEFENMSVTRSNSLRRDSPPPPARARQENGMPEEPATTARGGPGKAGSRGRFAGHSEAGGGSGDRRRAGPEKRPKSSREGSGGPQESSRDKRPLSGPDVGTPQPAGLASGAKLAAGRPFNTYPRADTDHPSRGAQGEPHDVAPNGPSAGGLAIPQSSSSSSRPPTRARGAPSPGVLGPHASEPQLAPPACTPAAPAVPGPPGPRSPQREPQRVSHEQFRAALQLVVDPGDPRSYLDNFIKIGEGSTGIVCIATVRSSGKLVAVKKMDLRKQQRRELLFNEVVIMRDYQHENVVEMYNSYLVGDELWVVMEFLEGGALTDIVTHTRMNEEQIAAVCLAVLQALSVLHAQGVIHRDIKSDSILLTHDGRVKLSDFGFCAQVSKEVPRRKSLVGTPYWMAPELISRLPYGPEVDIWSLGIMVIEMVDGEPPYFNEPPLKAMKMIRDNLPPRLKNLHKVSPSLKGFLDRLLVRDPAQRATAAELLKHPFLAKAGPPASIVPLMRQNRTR

IC50 (PAK4) [nM] | IC50 (PAK2 (PAK65)) [nM] | IC50 (PAK1) [nM] | IC50 (PAK3) [nM] | SMILES
≥ 5000 | 500 to 5000 | 50 to 500 | 500 to 5000 | CCn1c(=O)c(-c2ccc(C3CC3)cc2)cc2cnc(Nc3ccc(N4CCN(C)CC4)cc3)nc21
≥ 5000 | 500 to 5000 | 50 to 500 | 500 to 5000 | CCn1c(=O)c(-c2ccc(-c3ccnn3C)cc2)cc2cnc(Nc3ccc(N4CCN(C)CC4)cc3)nc21
≥ 5000 | 500 to 5000 | 50 to 500 | 50 to 500 | CCn1c(=O)c(-c2ccc(-c3ccsc3)cc2)cc2cnc(Nc3ccc(N4CCN(C)CC4)cc3)nc21
≥ 5000 | > 5000 | 50 to 500 | > 5000 | CCn1c(=O)c(-c2ccc(-c3ccoc3)cc2)cc2cnc(Nc3ccc(N4CCN(C)CC4)cc3)nc21
≥ 5000 | 50 to 500 | 50 to 500 | 50 to 500 | CCn1c(=O)c(-c2ccc(-c3ccc(OC)nc3)cc2)cc2cnc(Nc3ccc(N4CCN(C)CC4)cc3)nc21
≥ 5000 | > 5000 | 500 to 5000 | > 5000 | CCn1c(=O)c(-c2nc(C3CCNCC3)sc2C)cc2cnc(Nc3ccc(N4CCN(C)CC4)cc3)nc21
500 to 5000 | < 50 | < 50 | < 50 | CCn1c(=O)c(-c2ccc(-c3cncnc3)cc2Cl)cc2cnc(Nc3ccc(C4CNCCO4)cc3)nc21 (centres unmarked)
≥ 5000 | > 5000 | > 5000 | > 5000 | CCn1c(=O)c(-c2nc(C3CCN(C)CC3)sc2C)cc2cnc(Nc3ccc(N4CCN(C)CC4)cc3)nc21
≥ 5000 | 500 to 5000 | > 5000 | 500 to 5000 | CCn1c(=O)c(-c2ccc(-c3ccc(NC(C)=O)nc3)cc2Cl)cc2cnc(Nc3ccc(N4CCN(C)CC4)cc3)nc21
≥ 5000 | 50 to 500 | 50 to 500 | 500 to 5000 | CCn1c(=O)c(-c2ccc(-c3cncnc3)cc2)cc2cnc(Nc3ccc(N4CCN(C)CC4)cc3)nc21
≥ 5000 | > 5000 | > 5000 | > 5000 | CCn1c(=O)c(-c2ccc(-c3cccc4ncccc34)cc2)cc2cnc(Nc3ccc(N4CCN(C)CC4)cc3)nc21
≥ 5000 | > 5000 | > 5000 | > 5000 | CCn1c(=O)c(-c2ccc(-c3cccs3)s2)cc2cnc(Nc3ccc(N4CCN(C)CC4)cc3)nc21
≥ 5000 | > 5000 | > 5000 | > 5000 | CCn1c(=O)c(-c2nc(C3CCN(C(C)=O)CC3)sc2C)cc2cnc(Nc3ccc(N4CCN(C)CC4)cc3)nc21
≥ 5000 | < 50 | < 50 | < 50 | CCn1c(=O)c(-c2ccc(-c3cncnc3)cc2Cl)cc2cnc(Nc3ccc(C4CN(C)CCO4)cc3)nc21 (centres unmarked)
500 to 5000 | < 50 | < 50 | 50 to 500 | CCn1c(=O)c(-c2ccc(-c3ncc(C)s3)cc2Cl)cc2cnc(Nc3ccc(N4CCN(C)CC4)cc3)nc21
≥ 5000 | 500 to 5000 | 50 to 500 | > 5000 | CCn1c(=O)c(-c2ccc(-c3cncs3)cc2)cc2cnc(Nc3ccc(N4CCN(C)CC4)cc3)nc21
≥ 5000 | 50 to 500 | < 50 | 50 to 500 | CCn1c(=O)c(-c2ccc(-c3cscn3)cc2Cl)cc2cnc(Nc3ccc(N4CCN(C)CC4)cc3)nc21
≥ 5000 | > 5000 | > 5000 | > 5000 | CCn1c(=O)c(-c2ccc(C3CC3)s2)cc2cnc(Nc3ccc(N4CCN(C)CC4)cc3)nc21
≥ 5000 | 500 to 5000 | 50 to 500 | 500 to 5000 | CN(C)CCc1ccc(Nc2ncc3cc(-c4ccc(-c5cccnc5N(C)C)cc4Cl)c(=O)n(C)c3n2)cc1
≥ 5000 | < 50 | < 50 | 50 to 500 | CCc1cc(-c2ccc(-c3cc4cnc(Nc5ccc(C6CCN(C)CC6)cc5)nc4n(CC)c3=O)c(Cl)c2)ncn1
≥ 5000 | > 5000 | 500 to 5000 | > 5000 | CCn1c(=O)c(-c2ccc(-c3noc(C)n3)cn2)cc2cnc(Nc3ccc(C4CCN(C)CC4)cc3)nc21
≥ 5000 | < 50 | < 50 | < 50 | Cc1nccnc1-c1ccc(-c2cc3cnc(Nc4ccc(C5CCN(C)CC5)cc4)nc3n(C)c2=O)c(Cl)c1

IC50 (PAK4) [nM] | IC50 (PAK2 (PAK65)) [nM] | IC50 (PAK1) [nM] | IC50 (PAK3) [nM] | SMILES
50 to 500 | < 50 | < 50 | < 50 | CCn1c(=O)c(-c2cc(C)c(-c3cccnc3)cc2Cl)cc2cnc(Nc3ccc(C4CCN(C)CC4)cc3)nc21
≥ 5000 | 50 to 500 | 50 to 500 | 50 to 500 | CCn1c(=O)c(-c2ccc(-c3nccnc3C)cc2Cl)cc2cnc(Nc3ccccc3)nc21
≥ 5000 | < 50 | < 50 | 50 to 500 | CCn1c(=O)c(-c2cc(C)c(-c3cccnc3C)cc2Cl)cc2cnc(Nc3ccc(C4CCN(C)CC4)cc3)nc21
≥ 5000 | 50 to 500 | 50 to 500 | 50 to 500 | CC(=O)Nc1cc(-c2cc3cnc(Nc4ccc(CCN(C)C)cc4)nc3n(C)c2=O)c(Cl)cc1-c1cccnc1
500 to 5000 | < 50 | < 50 | 50 to 500 | Cc1cnc(-c2ccc(-c3cc4cnc(Nc5ccc(C6CCN(C)CC6)cc5)nc4n(C)c3=O)c(C)c2)s1
≥ 5000 | < 50 | < 50 | < 50 | Cc1nc(-c2ccc(-c3cc4cnc(Nc5ccc(C6CCN(C)CC6)cc5)nc4n(C)c3=O)c(C)c2)no1
≥ 5000 | < 50 | < 50 | < 50 | CCn1c(=O)c(-c2ccc(-c3nccnc3C)cc2C)cc2cnc(Nc3ccc(C4CCN(C)CC4)cc3)nc21
≥ 5000 | 50 to 500 | 50 to 500 | 500 to 5000 | CC(=O)Nc1ncccc1-c1ccc(Cl)c(-c2cc3cnc(Nc4ccc(C5CCN(C)CC5)cc4)nc3n(C)c2=O)c1
500 to 5000 | < 50 | < 50 | 50 to 500 | CCn1c(=O)c(-c2ccc(-c3ncc(C)s3)cc2C)cc2cnc(Nc3ccc(C4CCN(C)CC4)cc3)nc21
≥ 5000 | 500 to 5000 | 500 to 5000 | > 5000 | CN1CCC(c2ccc(Nc3ncc4cc(-c5cc(-c6cccnc6N(C)C)ccc5Cl)c(=O)n(C)c4n3)cc2)CC1
≥ 5000 | 500 to 5000 | 50 to 500 | 50 to 500 | CN1CCC(c2ccc(Nc3ncc4cc(-c5cc(-c6cnccn6)ccc5Cl)c(=O)n(C)c4n3)cc2)CC1
≥ 5000 | 500 to 5000 | 50 to 500 | 50 to 500 | Cc1ccc(-c2cccnc2)cc1-c1cc2cnc(Nc3ccc(C4CCN(C)CC4)cc3)nc2n(C)c1=O
≥ 5000 | 500 to 5000 | 500 to 5000 | 50 to 500 | Cc1nc(-c2ccc(Cl)c(-c3cc4cnc(Nc5ccc(C6CCN(C)CC6)cc5)nc4n(C)c3=O)c2)no1
≥ 5000 | > 5000 | 500 to 5000 | > 5000 | CN1CCC(c2ccc(Nc3ncc4cc(-c5cc(-c6ccncc6)ccc5Cl)c(=O)n(C)c4n3)cc2)CC1
≥ 5000 | > 5000 | > 5000 | 500 to 5000 | CC(=O)N(C)c1ncccc1-c1ccc(Cl)c(-c2cc3cnc(Nc4ccc(C5CCN(C)CC5)cc4)nc3n(C)c2=O)c1
≥ 5000 | 500 to 5000 | 50 to 500 | 50 to 500 | CN1CCC(c2ccc(Nc3ncc4cc(-c5cc(-c6ccccn6)ccc5Cl)c(=O)n(C)c4n3)cc2)CC1
≥ 5000 | > 5000 | 50 to 500 | 50 to 500 | Cc1cnc(-c2ccc(Cl)c(-c3cc4cnc(Nc5ccc(C6CCN(C)CC6)cc5)nc4n(C)c3=O)c2)s1
500 to 5000 | > 5000 | 500 to 5000 | 50 to 500 | CN1CCC(c2ccc(Nc3ncc4cc(-c5cc(-c6nccc(N(C)C)n6)ccc5Cl)c(=O)n(C)c4n3)cc2)CC1
≥ 5000 | 50 to 500 | 50 to 500 | 50 to 500 | CC(=O)N(C)c1cc(-c2cc3cnc(Nc4ccc(CCN(C)C)cc4)nc3n(C)c2=O)c(Cl)cc1-c1cccnc1
500 to 5000 | > 5000 | > 5000 | > 5000 | CC(=O)Nc1ccc(-c2ccc(Cl)c(-c3cc4cnc(Nc5ccc(C6CCN(C)CC6)cc5)nc4n(C)c3=O)c2)cn1
≥ 5000 | > 5000 | > 5000 | > 5000 | CC(=O)Nc1ccnc(-c2ccc(Cl)c(-c3cc4cnc(Nc5ccc(C6CCN(C)CC6)cc5)nc4n(C)c3=O)c2)n1
≥ 5000 | > 5000 | > 5000 | > 5000 | CC(=O)N(C)c1ccc(-c2ccc(Cl)c(-c3cc4cnc(Nc5ccc(C6CCN(C)CC6)cc5)nc4n(C)c3=O)c2)cn1
